# Where two headings read alike, the source gives them in different places.
# System: PKMYT1 (CDK1 pThr14) in FUOV1 cells
# Assay: PKMYT1 cell-based activity assay, CDK1 pThr14 AlphaLISA in FUOV1 cells
# Details: read-out: FUOV-1 CDK1 pThr14 IC50
# Summary of the method: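 FUOV1 cells were treated with PKMYT1 inhibitor for 2 h at 37 °C, then lysed. CDK1 pThr14 was measured by AlphaLISA, pairing an anti-pThr14 antibody with an anti-total CDK1 antibody (5 nM each). Signal read at 680/615 nm and used to derive IC50.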
"IC50 (2 h, 2 h compound incubation)",Compound,other results
0.059 µM,Cc1ccc2[nH]ncc2c1-c1nc(-c2cccnc2Nc2cncc(F)n2)nc(C(N)=O)c1N [Compound 753],
0.151 µM,CO[C@H]1C[C@H](Nc2ncccc2-c2nc(C(N)=O)c(N)c(-c3c(C)ccc4[nH]ncc34)n2)C1 [Compound 551],
,Cc1ccc2[nH]ncc2c1-c1nc(-c2ccc(F)nc2Nc2nccnc2Cl)nc(C(N)=O)c1N [Compound 924],"IC50 (2 h, 2 hours with compound): 0.015 µM"
0.041 µM,Cc1ccc2[nH]ncc2c1-c1nc(-c2ccc(F)cc2Nc2cncnc2C)nc(C(N)=O)c1N [Compound 695],
,Cc1ccc2[nH]ncc2c1-c1nc(-c2ccc(C#N)nc2NC2CCOCC2)nc(C(N)=O)c1N [Compound 810],"IC50 (2 h, 2 hours with compound): 0.096 µM"
,Cc1cc(F)c2[nH]ncc2c1-c1nc(-c2cc(F)cnc2N[C@H]2CCOC[C@H]2F)nc(C(N)=O)c1N [Compound 887],"IC50 (2 h, 2 hours with compound): 0.104 µM"
0.059 µM,"Cc1ccc2[nH]ncc2c1-c1nc(-c2cc(F)ccc2Nc2cccnc2)nc(C(N)=O)c1N [Compound 519, 5-amino-2-(5-fluoro-2-(pyridin-3-ylamino)phenyl)-6-(5-methyl-1H-indazol-4-yl)pyrimidine-4-carboxamide]",
0.004 µM,Cc1ccc(-c2nc(C(N)=O)c(N)c(-c3c(C)ccc4[nH]ncc34)n2)c(Nc2nccnc2Cl)n1 [Compound 721],
> 10 µM,Cc1ccc2[nH]ncc2c1-c1nc(-c2cccnc2NC[C@H]2CCO2)nc(C(N)=O)c1N [Compound 649],
0.13 µM,Cc1ccc2[nH]ncc2c1-c1nc(-c2cccnc2NC[C@@H]2CCCOC2)nc(C(N)=O)c1N [Compound 651],
0.871 µM,Cc1ccc2[nH]ncc2c1-c1nc(-c2cc(F)ccc2Nc2ncc(Cl)s2)nc(C(N)=O)c1N [Compound 510],
0.057 µM,Cc1ccc2[nH]ncc2c1-c1nc(-c2cccnc2Nc2ncccc2C2CC2)nc(C(N)=O)c1N [Compound 729],
0.563 µM,Cc1cccc(-c2nc(C(N)=O)c(N)c(-c3c(C)ccc4[nH]ncc34)n2)c1Nc1ncccn1 [Compound 774],
,Cc1ccc2[nH]ncc2c1-c1nc(-c2ccc(Cl)nc2NC2CCOCC2)nc(C(N)=O)c1N [Compound 803],"IC50 (2 h, 2 hours with compound): 0.074 µM"
,Cc1ccc2[nH]ncc2c1-c1nc(-c2ccc(F)cc2NC2CCOCC2)nc(C(N)=O)c1N [Compound 857],"IC50 (2 h, 2 hours with compound): 0.075 µM"
0.179 µM,Cc1ccc2[nH]ncc2c1-c1nc(-c2cccnc2NC[C@@H]2CCO2)nc(C(N)=O)c1N [Compound 650],
0.075 µM,Cc1ccc2[nH]ncc2c1-c1nc(-c2cc(F)c(C#N)cc2Nc2ncccn2)nc(C(N)=O)c1N [Compound 761],
,Cc1ccc2[nH]ncc2c1-c1nc(-c2cc(F)cnc2NC2CC(O)C2(C)C)nc(C(N)=O)c1N (centres unmarked) [Compound 823],"IC50 (2 h, 2 hours with compound): 0.036 µM"
0.053 µM,Cc1ccc2[nH]ncc2c1-c1nc(-c2cccnc2NC2CC(F)(F)C2)nc(C(N)=O)c1N [Compound 675],
0.047 µM,"Cc1ccc2[nH]ncc2c1-c1nc(-c2ccc(F)cc2Nc2cncnc2)nc(C(N)=O)c1N [Compound 541, 5-amino-2-(4-fluoro-2-(pyrimidin-5-ylamino)phenyl)-6-(5-methyl-1H-indazol-4-yl)pyrimidine-4-carboxamide]",
,Cc1ccc2[nH]ncc2c1-c1nc(-c2cc(F)cnc2N[C@@H]2C[C@@H]3CC[C@H]2O3)nc(C(N)=O)c1N [Compound 890],IC50 (2 hours with compound): 0.081 µM

"IC50 (2 h, 2 h compound incubation)",Compound,other results
,Cc1ccc2[nH]ncc2c1-c1nc(-c2cc(F)cnc2N[C@@H]2CC[C@H](O)C2)nc(C(N)=O)c1N [Compound 833],"IC50 (2 h, 2 hours with compound): 0.047 µM"
1.32 µM,Cc1ccc2[nH]ncc2c1-c1nc(-c2cccnc2NC2CCN(C)C(=O)C2)nc(C(N)=O)c1N (centres unmarked) [Compound 549],
0.383 µM,Cc1ccc2[nH]ncc2c1-c1nc(-c2cccnc2NCC2(C)COC2)nc(C(N)=O)c1N [Compound 661],
0.038 µM,Cc1ccnnc1Nc1ncccc1-c1nc(C(N)=O)c(N)c(-c2c(C)ccc3[nH]ncc23)n1 [Compound 563],
,Cc1ccc2[nH]ncc2c1-c1nc(-c2ccc(Cl)nc2Nc2cccnn2)nc(C(N)=O)c1N [Compound 832],"IC50 (2 h, 2 hours with compound): 0.217 µM"
,"Cc1ccc2[nH]ncc2c1-c1nc(-c2ccnnc2Nc2ncccc2F)nc(C(N)=O)c1N [Compound 886, 5-amino-2-(3-((3-fluoropyridin-2-yl)amino)pyridazin-4-yl)-6-(5-methyl-1H-indazol-4-yl)pyrimidine-4-carboxamide]","IC50 (2 h, 2 hours with compound): 0.037 µM"
,[2H]C([2H])([2H])c1ccc2[nH]ncc2c1-c1nc(-c2cc(F)cnc2N[C@H]2C[C@@](C)(O)C2)nc(C(N)=O)c1N [Compound 964],"IC50 (2 h, 2 hours with compound): 0.068 µM"
2.6 µM,Cc1ccnc(Nc2c(C)cccc2-c2nc(C(N)=O)c(N)c(-c3c(C)ccc4[nH]ncc34)n2)n1 [Compound 775],
0.451 µM,Cc1cc(F)c2[nH]ncc2c1-c1nc(-c2cc(F)ccc2Nc2ncc(F)cn2)nc(C(N)=O)c1N [Compound 677],
,Cc1ccc2[nH]ncc2c1-c1nc(-c2ccc(F)cc2Nc2ccnc(C3CC3)n2)nc(C(N)=O)c1N [Compound 940],"IC50 (2 h, 2 hours with compound): 0.269 µM"
0.166 µM,"Cc1ccc2[nH]ncc2c1-c1nc(-c2ccncc2NC(=O)C(C)(C)C)cc(C(N)=O)c1N [Compound 507, 5-amino-6-(5-methyl-1H-indazol-4-yl)-3′-pivalamido-[2,4′-bipyridine]-4-carboxamide]",
0.022 µM,Cc1ccc2[nH]ncc2c1-c1nc(-c2cccnc2N[C@H]2CC[C@H](O)C2)nc(C(N)=O)c1N [Compound 785],
0.061 µM,Cc1ccc2[nH]ncc2c1-c1nc(-c2ccc(F)nc2N[C@H]2C[C@@](C)(O)C2)nc(C(N)=O)c1N [Compound 791],
,NC(=O)c1nc(-c2cccnc2NC2CC2)nc(-c2cccc3[nH]ncc23)c1N [Compound 932],"IC50 (2 h, 2 hours with compound): 0.469 µM"
,Cc1ccc2[nH]ncc2c1-c1nc(-c2cc(F)cnc2NC2CCN(C)CC2)nc(C(N)=O)c1N [Compound 838],"IC50 (2 h, 2 hours with compound): 0.055 µM"
,Cc1ccc2[nH]ncc2c1-c1nc(-c2cc(F)cnc2N[C@H]2COC[C@H]2O)nc(C(N)=O)c1N [Compound 815],"IC50 (2 h, 2 hours with compound): 0.511 µM"
,Cc1ccc2[nH]ncc2c1-c1nc(-c2c[nH]nc2NC2CCOCC2)nc(C(N)=O)c1N [Compound 927],"IC50 (2 h, 2 hours with compound): 0.343 µM"
0.051 µM,Cc1ccc2[nH]ncc2c1-c1nc(-c2cccnc2N[C@H]2CCOC[C@@H]2F)nc(C(N)=O)c1N [Compound 648],
0.017 µM,Cc1ccc2[nH]ncc2c1-c1nc(-c2cc(F)cnc2N[C@H]2C[C@@H](O)C2)nc(C(N)=O)c1N [Compound 704],
0.025 µM,Cc1ccc2[nH]ncc2c1-c1nc(-c2ccc(F)cc2Nc2ncccn2)nc(C(N)=O)c1N [Compound 511],
0.002 µM,Cc1ccc2[nH]ncc2c1-c1nc(-c2ccc(F)cc2Nc2nccnc2C)nc(C(N)=O)c1N [Compound 640],

"IC50 (2 h, 2 h compound incubation)",Compound,other results
0.027 µM,"Cc1ccc2[nH]ncc2c1-c1nc(-c2cnccc2NCC(F)(F)F)nc(C(N)=O)c1N [Compound 520, 5-amino-6-(5-methyl-1H-indazol-4-yl)-2-(4-((2,2,2-trifluoroethyl)amino)pyridin-3-yl)pyrimidine-4-carboxamide]",
0.122 µM,[2H]C([2H])([2H])c1ccc2[nH]ncc2c1-c1nc(-c2cc(F)ccc2Nc2ncc(F)cn2)nc(C(N)=O)c1N [Compound 684],
0.011 µM,Cc1ccc2[nH]ncc2c1-c1nc(-c2cccnc2NC2CCCC2)nc(C(N)=O)c1N [Compound 681],
0.114 µM,Cc1ccc2[nH]ncc2c1-c1nc(-c2cc(F)c(F)cc2NC2CNC2)nc(C(N)=O)c1N [Compound 486],
0.15 µM,Cc1cc(Nc2cc(F)ccc2-c2nc(C(N)=O)c(N)c(-c3c(C)ccc4[nH]ncc34)n2)nc(C)n1 [Compound 578],
0.236 µM,Cc1ccc2[nH]ncc2c1-c1nc(-c2cc(F)ccc2Nc2ncc(C#N)s2)nc(C(N)=O)c1N [Compound 506],
0.014 µM,Cc1ccc2[nH]ncc2c1-c1nc(-c2ccc(C#N)cc2Nc2nccnc2C)nc(C(N)=O)c1N [Compound 751],
0.003 µM,"Cc1ccc(O)c(C)c1-c1nc(-c2cccnc2Nc2nccnc2C)nc(C(N)=O)c1N [Compound 727, 5-amino-6-(3-hydroxy-2,6-dimethylphenyl)-2-(2-((3-methylpyrazin-2-yl)amino)pyridin-3-yl)pyrimidine-4-carboxamide]",
,CCc1ccc(-c2nc(C(N)=O)c(N)c(-c3c(C)ccc4[nH]ncc34)n2)c(Nc2ncccc2F)n1 [Compound 975],"IC50 (2 h, 2 hours with compound): 0.014 µM"
0.198 µM,Cc1ccc2[nH]ncc2c1-c1nc(-c2cccnc2NC[C@@H]2CCCO2)nc(C(N)=O)c1N [Compound 670],
0.009 µM,Cc1ccc2[nH]ncc2c1-c1nc(-c2ccc(C#N)cc2Nc2ncccc2F)nc(C(N)=O)c1N [Compound 739],
0.066 µM,Cc1ccc2[nH]ncc2c1-c1nc(-c2cc(F)cnc2NC2COC2)nc(C(N)=O)c1N [Compound 712],
0.009 µM,"Cc1ccc(F)c(Nc2ncc(F)cc2-c2nc(C(N)=O)c(N)c(-c3c(C)ccc(O)c3C)n2)n1 [Compound 715, 5-amino-2-[5-fluoro-2-[(3-fluoro-6-methyl-2-pyridyl)amino]-3-pyridyl]-6-(3-hydroxy-2,6-dimethyl-phenyl)pyrimidine-4-carboxamide]",
0.931 µM,Cc1ccc2[nH]ncc2c1-c1nc(-c2cccnc2NCCS(C)(=O)=O)nc(C(N)=O)c1N [Compound 543],
> 10 µM,Cc1ccc2[nH]ncc2c1-c1nc(-c2cccnc2N2CCOCC2)nc(C(N)=O)c1N [Compound 662],
0.056 µM,Cc1ccc2[nH]ncc2c1-c1nc(-c2cccnc2Nc2nccnc2C)nc(C(N)=O)c1N [Compound 728],
0.052 µM,Cc1ccc2[nH]ncc2c1-c1nc(-c2cc(F)c(F)cc2NC2COC2)nc(C(N)=O)c1N [Compound 497],
0.009 µM,Cc1ccc2[nH]ncc2c1-c1nc(-c2cccnc2N[C@@H]2CC[C@@H](O)C2)nc(C(N)=O)c1N [Compound 786],
,Cc1ccc2[nH]ncc2c1-c1nc(-c2cc(F)cnc2N[C@@H]2C[C@@H]3CC[C@H]2O3)nc(C(N)=O)c1N [Compound 837],IC50 (2 hours with compound): 0.022 µM
1.29 µM,Cc1ccc2[nH]ncc2c1-c1cc2c(oc3ccc(OCC(C)(C)C#N)nc32)c(C(N)=O)c1N [Compound 559],

# Source: patent US20250304537A1 (Repare Therapeutics Inc., priority 2022, published 2025)
